Marks after values point to notes of the source that are not given here.
How the values were obtained:
[1] = tested on: Ma44 human lung squamous cell carcinoma; settings: in vivo
Experimental: (§1) Compound (1) was suspended in 1% methylcellulose solution (Wako, Osaka, 400 c.p., and distilled water) and was stored at 4° C. Paclitaxel (Sigma St. Louis, Mo.) was dissolved in dimethylsulfoxide (DMSO, Nakarai-Tesk, Tokyo) and stored at 4° C., and was prepared in a solution of 10% DMSO, 18% Cremophore RH-40 (Nikko Chemicals) and 72% distilled water before use.
(§2) Female mice, 8 weeks old (strain BALB/c-nu/nu, CLEA Japan Inc., Tokyo) were obtained and adapted for 5 days at experimental conditions and used at 10 weeks old. Experimental conditions included temperature of 21-27° C.; relative humidity of 40-70%; ventilation>10 times/hour; fluorescent light for 12-hour light (8:00-20:00)/12-hour dark; ad libitium access to food (irradiated CA-1, CLEA Japan Inc., Tokyo) and water (Osaka city tap water).
(§3) Statistical analyses versus control group and between selected groups were performed using a spreadsheet program to run Welch's test and Dunnett's multiple comparison test.
(§4) Tumor size and body weight were scored at least twice a week throughout the experiment. Tumor size was captured utilizing CD-10C compatible electric calipers (Mitsutoyo Corp., Kawasaki) and animal weight was automatically captured from the balance (A/D, Tokyo). The tumor volume was calculated by the following formula: [Tumor volume=(Length×Width×Width)/2]. The relative tumor volume (RV) was calculated as RV=Vn/Vo, where Vn: tumor volume on day n, and Vo: initial tumor volume. Judgment was performed one day (Examples 6 and 9) or three days (Examples 7 and 8) after the last dosing.
(§5) Animal experiments were performed using Tumor Measuring & Tracking System (VISIONS Co. Ltd., Tokyo). An experiment consisted of 8 mice per group (Examples 6 and 9) or 6 mice per group (Examples 7 and 8). Tumor samples were implanted subcutaneously into the back of mice (day 0). Tumor-implanted animals were randomized to groups based upon tumor volume and body weight when tumor volume reached approximately 100-200 mm^3. The control group was given vehicle (1% methylcellulose solution). The doses were calculated on the basis of up-to-date body weights of the mice (0.1 mL/10 g body weight). The mice were non-fasted during an entire course of the experiment.
(§6) Ma44 human lung squamous cell carcinoma was maintained by in vitro passage with using Eagle's Minimum Essential Medium (Nissui Pharmaceutical Co., Tokyo) supplemented with 10% fetal calf serum (Life Technologies Inc, MD). Ma44 cells (5×10^5/0.1 mL) were implanted and the animals were randomized at 11 days. Compound (1) was orally administered daily for 14 days. Paclitaxel solution (DMSO/Cremophore/distilled water) was prepared as above and administered intravenously 6 times (3 times per week×2).

RERF-LC-AI carcinoma = experiment: Antitumor efficacy against RERF-LC-AI human lung cancer fragment implanted subcutaneously in nude mice; settings: for % inhibition: day 26
Experimental: (§7) Compound (1) was suspended in 1% methylcellulose solution (Wako, Osaka, 400 c.p., and distilled water) and was stored at 4° C.
as §2, §3
Tumor size and body weight were scored at least twice a week throughout the experiment. Tumor size was captured utilizing CD-10C compatible electric calipers (Mitsutoyo Corp., Kawasaki) and animal weight was automatically captured from the balance (A/D, Tokyo). The tumor volume was calculated by the following formula: [Tumor volume=(Length×Width×Width)/2]. The relative tumor volume (RV) was calculated as RV=Vn/Vo, where Vn: tumor volume on day n, and Vo: initial tumor volume.
Animal experiments were performed using Tumor Measuring & Tracking System (VISIONS Co. Ltd., Tokyo). […] Tumor samples were implanted subcutaneously into the back of mice (day 0). Tumor-implanted animals were randomized to groups based upon tumor volume and body weight when tumor volume reached approximately 100-200 mm^3. The control group was given vehicle (1% methylcellulose solution). The doses were calculated on the basis of up-to-date body weights of the mice (0.1 mL/10 g body weight). The mice were non-fasted during an entire course of the experiment.
The tumor sample implanted was a fragment of RERF-LC-AI carcinoma. Implanted animals were randomized at 10 days. Compound (1) was orally administered daily for 14 days.

[2] = Body weight of treated mice (summary statement, Examples 1-4); format: in vivo
Experimental: as §4

RERF-LC-AI/TXL carcinoma [3] = experiment: Antitumor efficacy against RERF-LC-AI/TXL human lung cancer fragment implanted subcutaneously in nude mice; settings: for % inhibition: day 24
Experimental: as §1, §2, §3, §4, §5
(§8) The tumor sample implanted was a fragment of RERF-LC-AI/TXL carcinoma. Implanted animals were randomized at 11 days. Compound (1) was orally administered daily for 14 days. Paclitaxel solution (DMSO/Cremophore/distilled water) was prepared as above. and administered intravenously 6 times (3 times per week×2, day 11, 13, 15, 18, 20 and 22).

RERF-LC-AI/TXL carcinoma [4] = settings: in vivo
Experimental: as §1, §2, §3, §4, §5, §8

[5] = tested on: Ma44 human lung squamous cell carcinoma; experiment: Antitumor efficacy against Ma44 human lung squamous cell carcinoma implanted subcutaneously in nude mice; settings: for % inhibition: day 27; for RV on day 27 (Mean +/- SD), relative tumor volume: nude mice; for growth inhibition (% inhibition): p<0.01
Experimental: as §1, §2, §3, §4, §5, §6

[6] = tested on: BG-1-TR1 human ovarian cancer; experiment: Antitumor efficacy against BG-1-TR1 human ovarian cancer implanted subcutaneously in nude mice
Experimental: as §7, §2, §3, §4, §5
The tumor sample implanted included BG-1-TR1 cells (3×10^6/0.1 ml of 5 mg/ml matrigel solution, BD Biosciences, Bedford, Mass.). Implanted animals were randomized at 20 days. Compound (1) was orally administered daily for 14 days from day 20 to 33.

[7] = 50 mg/kg x 14, oral daily, 5 surviving mice
[8] = 25 mg/kg x 14, oral daily, day 11-24
[9] = 20 mg/kg x 6, intravenous, day 10, 12, 14, 17, 19 and 21
[10] = 20 mg/kg, maximum tolerated dose for nude mice in this schedule

Which mice found dead [1] does the source give for `Cc1cc(NC(=O)C(=O)c2cc(Cc3ccc(C#N)cc3)n3ccccc23)sn1` [Compound (1), 2-(3-(4-cyanobenzyl)indolizin-1-yl)-N-(3-methylisothiazol-5-yl)-2-oxoacetamide] here?
The mice found dead was “one of eight mice”.

And the “MBWL, maximum body weight loss (% of initial)” value (RERF-LC-AI carcinoma; 25 mg/kg x 14, oral daily)?
Its value is 4%.

And the “RV on day 26 (Mean +/- SD), relative tumor volume” value (RERF-LC-AI carcinoma; 25 mg/kg x 14, oral daily, day 10-23, nude mice)?
Its value is 14.1 ± 73.

What about the “% inhibition” value (RERF-LC-AI carcinoma; 25 mg/kg x 14, oral daily) of the same compound?
Its value is 64.9%.

What about the Toxic death (RERF-LC-AI carcinoma; 50 mg/kg x 14, oral daily, 1 of 6 mice, on day 21) of the same compound?
The Toxic death was “one of six mice”.

And the “MBWL, maximum body weight loss (% of initial)” value (RERF-LC-AI carcinoma; [7])?
Its value is 14%.

And the “RV on day 26 (Mean +/- SD), relative tumor volume” value (RERF-LC-AI carcinoma; [7])?
The value was 8.2 ± 1.9.

And the “% inhibition” value (RERF-LC-AI carcinoma; 50 mg/kg x 14, oral daily)?
Its value is 79.7%.

What about the Toxic death (RERF-LC-AI carcinoma; 75 mg/kg x 14, oral daily, 6 mice, on day 17-20) of the same compound?
Its Toxic death is “All mice”.

And the “percent inhibition of cancer cells” value (RERF-LC-AI carcinoma; oral administration, RERF-LC-AI, summary)?
The value was no more than 80%.

What about the “change in body weight” value [2] of the same compound?
The value was “Minimal change in body weight”.

What about the “MBWL, maximum body weight loss (% of initial)” value (RERF-LC-AI/TXL carcinoma [3]; 25 mg/kg x 14, oral daily) of the same compound?
The value was 1%.

What about the “RV on day 24 (Mean +/- SD), relative tumor volume” value (RERF-LC-AI/TXL carcinoma [3]; 25 mg/kg x 14, oral daily, from day 10 to 23, nude mice) of the same compound?
Its value is 26.49 ± 13.41.

And the “% inhibition” value (RERF-LC-AI/TXL carcinoma [3]; 25 mg/kg x 14, oral daily)?
The value was 36.2%.

And the “growth inhibition” value (RERF-LC-AI/TXL carcinoma [3]; 50 mg/kg daily oral dosing, evaluation day 27)?
The value was 68.8%.

What about the “MBWL, maximum body weight loss (% of initial)” value (RERF-LC-AI/TXL carcinoma [3]; 50 mg/kg x 14, oral daily) of the same compound?
Its value is 3%.

What about the Toxic death (RERF-LC-AI/TXL carcinoma [3]; 50 mg/kg x 14, oral daily, 1 mouse, on day 16) of the same compound?
The Toxic death was “Toxic”.

And the “RV on day 24 (Mean +/- SD), relative tumor volume” value (RERF-LC-AI/TXL carcinoma [3]; 50 mg/kg x 14, oral daily, 7 surviving mice)?
Its value is 15.01 ± 6.45.

And the “% inhibition” value (RERF-LC-AI/TXL carcinoma [3]; 50 mg/kg x 14, oral daily)?
Its value is 63.9%.

And the “percent inhibition of cancer cells” value (RERF-LC-AI/TXL carcinoma [3]; oral administration, RERF/TXL, summary)?
Its value is no more than 67%.

What about the mice found dead (RERF-LC-AI/TXL carcinoma [4]) of the same compound?
The mice found dead was “All mice”.

What about the “MBWL, maximum body weight loss (% of initial)” value ([5]; 25 mg/kg x 14, oral daily) of the same compound?
Its value is 3%.

And the “% inhibition” value [5, 8]?
Its value is 35.2%.

What about the “RV on day 27 (Mean +/- SD), relative tumor volume” value [5, 8] of the same compound?
Its value is 10.0 ± 1.4.

And the body weight losses ([5]; 50 mg/kg daily oral dosing)?
Its body weight losses is “mild”.

What about the “growth inhibition (% inhibition)” value ([5]; 50 mg/kg daily oral dosing) of the same compound?
The value was 63.9%.

What about the “MBWL, maximum body weight loss (% of initial)” value ([5]; 50 mg/kg x 14, oral daily) of the same compound?
Its value is 5%.

And the “% inhibition” value ([5]; 50 mg/kg x 14, oral daily)?
Its value is 68.8%.

What about the “RV on day 27 (Mean +/- SD), relative tumor volume” value ([5]; 50 mg/kg x 14, oral daily) of the same compound?
Its value is 4.8 ± 1.7.

And the “growth inhibition (% inhibition)” value ([5]; lower dose, daily oral)?
The value was 36.2%.

And the “percent inhibition of cancer cells” value ([5]; oral administration, Ma44, summary)?
The value was no more than 64%.

What about the “% inhibition” value ([6]; 12.5 mg/kg x 14, oral daily) of the same compound?
The value was 27.4%.

And the “MBWL, maximum body weight loss (% of initial)” value ([6]; 12.5 mg/kg x 14, oral daily)?
Its value is 0%.

And the “RV (Mean +/- SD), relative tumor volume on day 34” value ([6]; 12.5 mg/kg x 14, oral daily, from day 20 to 33)?
Its value is 1.6 ± 0.7.

What about the body weight losses ([6]; 25 mg/kg and 50 mg/kg daily oral dosing groups) of the same compound?
Its body weight losses is “mild”.

What about the “% inhibition” value ([6]; 25 mg/kg x 14, oral daily) of the same compound?
Its value is 27.5%.

What about the “RV (Mean +/- SD), relative tumor volume on day 34” value ([6]; 25 mg/kg x 14, oral daily, from day 20 to 33) of the same compound?
The value was 1.6 ± 0.5.

What about the “MBWL, maximum body weight loss (% of initial)” value ([6]; 25 mg/kg x 14, oral daily, maximum on d24) of the same compound?
Its value is 1.9% (d24).

And the “RV (Mean +/- SD), relative tumor volume on day 34” value ([6]; 50 mg/kg x 14, oral daily, from day 20 to 33)?
Its value is 0.9 ± 0.3.

And the “MBWL, maximum body weight loss (% of initial)” value ([6]; 50 mg/kg x 14, oral daily, maximum on d34)?
Its value is 8.7% (d34).

What about the “percent inhibition of cancer cells” value ([6]; oral administration, BG1-TR1, summary) of the same compound?
The value was “up to 61%”.

Which results are given for `CC(=O)O[C@H]1C(=O)[C@@]2(C)[C@H]([C@H](OC(=O)c3ccccc3)[C@]3(O)C[C@H](OC(=O)[C@H](O)[C@@H](NC(=O)c4ccccc4)c4ccccc4)C(C)=C1C3(C)C)[C@]1(OC(C)=O)CO[C@@H]1C[C@@H]2O` [Paclitaxel, reference compound]?
MBWL, maximum body weight loss (% of initial) (RERF-LC-AI carcinoma; 20 mg/kg x 6, intravenous): 7%; RV on day 26 (Mean +/- SD), relative tumor volume (RERF-LC-AI carcinoma; [9]): 3.1 ± 0.8**^e); % inhibition (RERF-LC-AI carcinoma; 20 mg/kg x 6, intravenous): 92.2%; MBWL, maximum body weight loss (% of initial) (RERF-LC-AI/TXL carcinoma [3]; 10 mg/kg x 6, intravenous): 0%; RV on day 24 (Mean +/- SD), relative tumor volume (RERF-LC-AI/TXL carcinoma [3]; 10 mg/kg x 6, intravenous, day 10, 12, 14, 17, 19 and 21): 31.23 ± 6.69; % inhibition (RERF-LC-AI/TXL carcinoma [3]; 10 mg/kg x 6, intravenous): 24.8%; MBWL, maximum body weight loss (% of initial) (RERF-LC-AI/TXL carcinoma [3]; 20 mg/kg x 6, intravenous): 0%; RV on day 24 (Mean +/- SD), relative tumor volume (RERF-LC-AI/TXL carcinoma [3]; [9]): 32.87 ± 10.03; % inhibition (RERF-LC-AI/TXL carcinoma [3]; 20 mg/kg x 6, intravenous): 20.9%; growth inhibition (RERF-LC-AI/TXL carcinoma [3]; [10]): 81.8%; MBWL, maximum body weight loss (% of initial) ([5]; 20 mg/kg x 6, intravenous): 3%; RV on day 27 (Mean +/- SD), relative tumor volume ([5]; 20 mg/kg x 6, intravenous, day 11, 13, 15, 18, 20 and 22): 2.8 ± 0.4^**e); % inhibition ([5]; 20 mg/kg x 6, intravenous): 81.8%; antitumor activity [5, 10]: neither significant nor effective; % inhibition ([6]; 20 mg/kg x 6, intravenous): 8.3%; RV (Mean +/- SD), relative tumor volume on day 34 ([6]; 20 mg/kg x 6, intravenous, day 20, 22, 24, 27, 29, 31, nude mice): 2.0 ± 0.7; MBWL, maximum body weight loss (% of initial) ([6]; 20 mg/kg x 6, intravenous, maximum on d27): 4.5% (d27); antitumor activity ([6]; 20 mg/kg, maximum tolerated dose for nude mice in this schedule, BG-1 cells): neither significant nor effective
